Target: T1, Lp-PLA2 from plasma (pooled human plasma) (Homo sapiens, UniProt Q13093)
T1 construct: from tissue; host or cells: pooled human plasma
T1 sequence (Q13093 22-441): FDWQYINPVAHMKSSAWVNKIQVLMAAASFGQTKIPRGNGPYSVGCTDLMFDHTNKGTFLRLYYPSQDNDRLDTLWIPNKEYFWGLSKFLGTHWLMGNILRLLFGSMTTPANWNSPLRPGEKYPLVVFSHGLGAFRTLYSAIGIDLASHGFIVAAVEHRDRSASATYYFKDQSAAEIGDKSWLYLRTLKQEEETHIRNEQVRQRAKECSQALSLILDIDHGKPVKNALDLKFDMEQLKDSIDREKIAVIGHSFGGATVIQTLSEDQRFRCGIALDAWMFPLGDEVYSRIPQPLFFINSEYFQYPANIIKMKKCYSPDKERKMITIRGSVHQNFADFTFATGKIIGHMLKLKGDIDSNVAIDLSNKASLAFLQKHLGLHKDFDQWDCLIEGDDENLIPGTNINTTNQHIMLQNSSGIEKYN
Test: Lp-PLA2 human plasma assay (Thio-PAF assay)
Type: biochemical
Settings: read-out: pIC50 in the thio-PAF assay (converted)
Text: (3) Lipoprotein-Associated Phospholipase A2 (Lp-PLA2) Human Plasma Assay (Also Referred to as “Thio-PAF Assay”)
The human plasma assay utilizes a thioester analog of PAF (phosphatidylcholine), where hydrolysis yields to the formation of a phospholipid containing a free thiol group. The amount of thiol is quantitated continuously by reacting with CPM (7-diethylamino-3-(4′-maleimidylphenyl)-4-methylcoumarin), a maleimide which increases in fluorescence after Michael addition of thiols. This assay may detect the activity of Lp-PLA2 from plasma, as determined by specific inhibition by Lp-PLA2 inhibitors.
The thio-PAF assay was run as a quenched 15 μL assay. Compounds source plate was prepared by making 1:3 (by volume) serial dilution of the compounds into pure DMSO on 384-well microplate. 0.01 μL of compounds on compound source plate were transferred to 384 well Greiner 784076 (black) low-volume plates by ECHO liquid dispenser. 8 μL pooled human plasma, which was previously aliquoted and frozen, was added. Plates were centrifuged for 10 sec at 500 rpm. After 30 minutes preincubation, 2 μL of substrate (2.5 mM thio-PAF, 3.2 mM NEM (N-ethylmaleimide) [made fresh daily in DMSO], and 32 μM CPM [from a DMSO stock] in assay buffer of 50 mM HEPES, pH7.4, 150 mM NaCl, 1 mM CHAPS was added to 384 well Greiner 784076 (black) low-volume plates by BRAVO liquid handling station. Plates were centrifuged for 10 sec at 500 rpm. Plate was covered to protect from light and incubated for 2 min at room temperature. Reaction was quenched with 5 μL of 5% aqueous trifluoroacetic acid (TFA). Plates were covered to protect from light and incubated for 40 min at room temperature. Plates were read at ex: 380/em: 485 using-Envision microplate reader. PIC50 data, curve and QC analysis was conducted by using XLFit module in Excel.
All exemplified compounds of the present invention were tested in thio-PAF assay or similar assay as described above.

Row | IC50 [µM] | Compound
1 | > 10 | O=c1nc(OCCc2ccc(Oc3ccc(Cl)c(C(F)(F)F)c3)cc2)[nH]cc1Cc1c(O)cc(F)cc1F [E19, 2-{[2-(4-{[4-Chloro-3-(trifluoromethyl)phenyl]oxy}phenyl)ethyl]oxy}-5-[(2,4-difluoro-6-hydroxyphenyl)methyl]-4(1H)-pyrimidinone]
2 | > 10 | CCc1c[nH]c(OCCc2ccc(Oc3ccc(Cl)c(C(F)(F)F)c3)cc2)nc1=O [E27, 2-{[2-(4-{[4-Chloro-3-(trifluoromethyl)phenyl]oxy}phenyl)ethyl]oxy}-5-ethyl-4(1H)-pyrimidinone]
3 | > 10 | O=c1nc(CCc2ccc(Oc3ccc(F)cc3)cc2)[nH]cc1Cc1cncnc1 [E39, 2-(4-(4-fluorophenoxy)phenethyl)-5-(pyrimidin-5-ylmethyl)pyrimidin-4(1H)-one]
4 | > 10 | Cn1cc(Cc2c[nH]c(CCc3ccc(Oc4cccc(C(F)(F)F)c4)cc3)nc2=O)cn1 [E50, 5-((1-methyl-1H-pyrazol-4-yl)methyl)-2-(4-(3-(trifluoromethyl)phenoxy)phenethyl)pyrimidin-4(1H)-one]
5 | > 10 | COc1ncc(Cc2c[nH]c(SCc3ccc(Oc4ccc(F)cc4)cc3)nc2=O)cn1 [E52, 2-((4-(4-fluorophenoxy)benzyl)thio)-5-((2-methoxypyrimidin-5-yl)methyl)pyrimidin-4(1H)-one]
6 | > 10 | N#Cc1ccc(Cc2c[nH]c(SCc3ccc(Oc4ccc(Cl)c(C(F)(F)F)c4)cc3)nc2=O)cc1 [E62, 4-[(2-{[(4-{[4-chloro-3-(trifluoromethyl)phenyl]oxy}phenyl)methyl]thio}-4-oxo-1,4-dihydro-5-pyrimidinyl)methyl]benzonitrile]
7 | > 10 | CCc1c[nH]c(SCc2ccc(Oc3ccc(Cl)c(C(F)(F)F)c3)cc2)nc1=O [E63, 2-{[(4-{[4-chloro-3-(trifluoromethyl)phenyl]oxy}phenyl)methyl]thio}-5-ethyl-4(1H)-pyrimidinone]
8 | > 10 | Cn1cc(Cc2c[nH]c(SCc3ccc(Oc4ccc(Cl)c(C(F)(F)F)c4)c(C#N)c3)nc2=O)c2ccccc21 [E81, 2-(4-chloro-3-(trifluoromethyl)phenoxy)-5-(((5-((1-methyl-1H-indol-3-yl)methyl)-4-oxo-1,4-dihydropyrimidin-2-yl)thio)methyl)benzonitrile]
9 | > 10 | CCc1c[nH]c(SCc2ccc(Oc3ccc(Cl)c(C(F)(F)F)c3)c(C#N)c2)nc1=O [E83, 2-{[4-chloro-3-(trifluoromethyl)phenyl]oxy}-5-{[(5-ethyl-4-oxo-1,4-dihydro-2-pyrimidinyl)thio]methyl}benzonitrile]
10 | > 10 | COc1ncc(Cc2c[nH]c(SCc3ccc(Oc4ccc(F)c(C(F)(F)F)c4)c(C#N)c3)nc2=O)cn1 [E89, 2-{[4-fluoro-3-(trifluoromethyl)phenyl]oxy}-5-{[(5-{[2-(methyloxy)-5-pyrimidinyl]methyl}-4-oxo-1,4-dihydro-2-pyrimidinyl)thio]methyl}benzonitrile]
11 | > 10 | CCc1c[nH]c(SCc2ccc(Oc3cccc(C(F)(F)F)c3)c(C#N)c2)nc1=O [E98, 5-{[(5-ethyl-4-oxo-1,4-dihydro-2-pyrimidinyl)thio]methyl}-2-{[3-(trifluoromethyl)phenyl]oxy}benzonitrile]
12 | > 10 | N#Cc1ccc(Cc2c[nH]c(SCCc3ccc(Oc4ccc(Cl)c(C(F)(F)F)c4)cc3)nc2=O)cc1 [E114, 4-[(2-{[2-(4-{[4-chloro-3-(trifluoromethyl)phenyl]oxy}phenyl)ethyl]thio}-4-oxo-1,4-dihydro-5-pyrimidinyl)methyl]benzonitrile]
13 | > 10 | CCc1c[nH]c(OCCc2cc(F)c(Oc3ccc(Cl)c(C(F)(F)F)c3)c(F)c2)nc1=O [E125, 2-{[2-(4-{[4-chloro-3-(trifluoromethyl)phenyl]oxy}-3,5-difluorophenyl)ethyl]oxy}-5-ethyl-4(1H)-pyrimidinone]
14 | > 10 | O=C(O)Cc1c[nH]c(OCCc2ccc(Oc3ccc(Cl)c(C(F)(F)F)c3)cc2)nc1=O [E131, (2-{[2-(4-{[4-chloro-3-(trifluoromethyl)phenyl]oxy}phenyl)ethyl]oxy}-4-oxo-1,4-dihydro-5-pyrimidinyl)acetic acid]

Source: patent publication US9174968B2, “Pyrimidinone compounds for use in the treatment of diseases or conditions mediated by LP-PLA2” (GLAXO GROUP LIMITED, priority 2010, dated 2015)
